Results on 26 molecules are retold here after patent US9617258B2, “Pyrrolo[2,3-d]pyrimidinyl, pyrrolo[2,3-b]pyrazinyl and pyrrolo[2,3-d]pyridinyl acrylamides” (Pfizer Inc., priority 2013, dated 2017).

The series can be described thus: Stability of JAK3 covalent inhibitors in human whole blood.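 Also: parent compound remaining over incubation time quantified by LC-MS/MS as peak area ratio against an internal standard, using pooled K2-EDTA blood.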 The class given is in vitro ADME. To be noted: both sexes, whole blood, 37° C., read-out: Human blood stability t1/2.
Excerpt: Stability of JAK3 Covalent Inhibitors in Rat and Human Whole Blood
Rat blood was collected from 3 male Sprague-Dawley rats (200-250 g, Charles River Laboratories) and pooled for each study. Human blood was collected from one male and one female healthy subjects at the Occupational Health & Wellness Center at Pfizer, Groton, CT and pooled for each study. Both rat and human blood was collected freshly into K2-EDTA tubes and kept on ice. An aliquot of the blood was transferred to microtubes and pre-warmed for 10 min at 37° C. using a heat block. […] An aliquot of the incubation mixture was removed at designated time points during the course of the incubation, mixed with an aliquot of acetonitrile containing an internal standard, vortexed and centrifuged. The resulting supernatants were removed and subjected to LC-MS/MS analyses to determine parent compound concentrations. Peak area ratios of the parent compound vs the internal standard were used to determine the % of parent compound remaining vs incubation time.
On to `C=CC(=O)N1CC(Nc2ncnc3[nH]ccc23)CCC1(C)C` (centres unmarked) [Example 67, 1-(5-((7H-Pyrrolo[2,3-d]pyrimidin-4-yl)amino)-2,2-dimethylpiperidin-1-yl)prop-2-en-1-one], for which the half-life at 1 μM was > 6 h.

For the molecule `C=CC(=O)N[C@H]1C[C@@H](Nc2cnc3[nH]cc(C(=O)NC(C)C)c3n2)C1` [Example 184, 2-{[cis-3-(acryloylamino)cyclobutyl]amino}-N-(propan-2-yl)-5H-pyrrolo[2,3-b]pyrazine-7-carboxamide], the half-life at 1 μM was > 6 h.

With `C=CC(=O)N1CCC[C@@H](Nc2ncnc3[nH]cc(-c4ccc(OCC)nc4)c23)C1` [Example 33, 1-[(3R)-3-{[5-(6-ethoxypyridin-3-yl)-7H-pyrrolo[2,3-d]pyrimidin-4-yl]amino}piperidin-1-yl]prop-2-en-1-one], the half-life at 1 μM is > 6 h.

As to `C=CC(=O)N1CCC[C@@H](Nc2ncnc3[nH]cc(-c4ccc(N5CCOCC5)nc4)c23)C1` [Example 36, 1-[(3R)-3-({5-[6-(morpholin-4-yl)pyridin-3-yl]-7H-pyrrolo[2,3-d]pyrimidin-4-yl}amino)piperidin-1-yl]prop-2-en-1-one], the half-life at 1 μM was > 6 h.

Regarding `C=CC(=O)N1CC[C@@H](Nc2cnc3[nH]cc(C(=O)NC(C)(C)C)c3n2)C[C@H]1C` [Example 342, 2-(((2R,4R)-1-Acryloyl-2-methylpiperidin-4-yl)amino)-N-(tert-butyl)-5H-pyrrolo[2,3-b]pyrazine-7-carboxamide], the half-life at 1 μM was > 6 h.

Consider `C=CC(=O)N1CCC(Nc2cnc3[nH]cc(C(=O)NC(C)C4CC4)c3n2)CC1` (centres unmarked) [Example 288, 2-[(1-acryloylpiperidin-4-yl)amino]-N-(1-cyclopropylethyl)-5H-pyrrolo[2,3-b]pyrazine-7-carboxamide], for which the half-life at 1 μM came to 3.67 h.

Turning to `C=CC(=O)N1C[C@@H](C)C[C@@H](Nc2ncnc3[nH]ccc23)C1` (single isomer, unassigned) [Example 14], the half-life at 1 μM is > 4.18 h.

`C=CC(=O)N1CCC(Nc2cnc3[nH]cc(C(=O)NC4CC(F)C4)c3n2)CC1` (centres unmarked) [Example 243, 2-[(1-acryloylpiperidin-4-yl)amino]-N-(3-fluorocyclobutyl)-5H-pyrrolo[2,3-b]pyrazine-7-carboxamide]: the half-life at 1 μM was > 6 h.

`C=CC(=O)N1CCN(c2cnc3[nH]cc(C(=O)NC(C)C)c3n2)C[C@@H]1CC` [Example 299, 2-[(3S)-4-acryloyl-3-ethylpiperazin-1-yl]-N-(propan-2-yl)-5H-pyrrolo[2,3-b]pyrazine-7-carboxamide]: the half-life at 1 μM worked out at 3.32 h.

`C=CC(=O)N1C[C@H](Nc2ncnc3[nH]ccc23)CC[C@@H]1CO` (single isomer, unassigned) [Example 7]: the half-life at 1 μM was > 5.56 h.

With `C=CC(=O)N1C[C@H](Nc2ncnc3[nH]cc(C#N)c23)CC[C@@H]1C` [Example 163, 4-{[(3R,6S)-1-Acryloyl-6-methylpiperidin-3-yl]amino}-7H-pyrrolo[2,3-d]pyrimidine-5-carbonitrile], the half-life at 1 μM is 4.83 h.

On to `C=CC(=O)N1CC[C@@H](Nc2cnc3[nH]cc(C(=O)NC(C)C)c3n2)[C@@H](F)C1` [Example 320, 2-{[(3S,4R)-1-acryloyl-3-fluoropiperidin-4-yl]amino}-N-(propan-2-yl)-5H-pyrrolo[2,3-b]pyrazine-7-carboxamide], for which the half-life at 1 μM was 3.17 h.

Take `C=CC(=O)N1CC[C@]2(C)CCN(c3ncnc4[nH]ccc34)[C@@H]2C1` [Example 59, 1-((3aS,7aS)-3a-Methyl-1-(7H-pyrrolo[2,3-d]pyrimidin-4-yl)hexahydro-1H-pyrrolo[2,3-c]pyridin-6(2H)-yl)prop-2-en-1-one]: the half-life at 1 μM stood at 3.07 h.

Regarding `C=CC(=O)N1CCC(Nc2cnc3[nH]cc(C(=O)NC(C)(C)CC)c3n2)CC1` [Example 276, 2-[(1-acryloylpiperidin-4-yl)amino]-N-(2-methylbutan-2-yl)-5H-pyrrolo[2,3-b]pyrazine-7-carboxamide], the half-life at 1 μM was found to be 3.75 h.

For the molecule `C=CC(=O)N1C[C@H](Nc2ncnc3[nH]cc(Cl)c23)CC[C@@H]1C` [Example 18, 1-((2S,5R)-5-((5-Chloro-7H-pyrrolo[2,3-d]pyrimidin-4-yl)amino)-2-methylpiperidin-1-yl)prop-2-en-1-one], the half-life at 1 μM is > 5.31 h.

In the case of `C=CC(=O)N1CCC(Nc2cnc3[nH]cc(C(=O)NCCCC(F)(F)F)c3n2)CC1` [Example 240, 2-[(1-acryloylpiperidin-4-yl)amino]-N-(4,4,4-trifluorobutyl)-5H-pyrrolo[2,3-b]pyrazine-7-carboxamide], the half-life at 1 μM came to 3.92 h.

In the case of `C=CC(=O)N1C[C@H](Nc2ncnc3[nH]cc(CCOC)c23)CC[C@@H]1C` [Example 13], the half-life at 1 μM was 5.08 h.

Turning to `C=CC(=O)N1CCC(Oc2cnc3[nH]cc(C(=O)NC(C)(C)C)c3n2)CC1` [Example 338, 2-((1-Acryloylpiperidin-4-yl)oxy)-N-(tert-butyl)-5H-pyrrolo[2,3-b]pyrazine-7-carboxamide], the half-life at 1 μM is 5.47 h.

In the case of `C=CC(=O)N1CCC(Nc2cnc3[nH]cc(C(=O)NCCC#N)c3n2)CC1` [Example 261, 2-[(1-acryloylpiperidin-4-yl)amino]-N-(2-cyanoethyl)-5H-pyrrolo[2,3-b]pyrazine-7-carboxamide], the half-life at 1 μM was > 6 h.

Turning to `C=CC(=O)N1CCC(Nc2cnc3[nH]cc(C(=O)NC(C)C)c3n2)CC1` [Example 168, 2-[(1-acryloylpiperidin-4-yl)amino]-N-(propan-2-yl)-5H-pyrrolo[2,3-b]pyrazine-7-carboxamide], the half-life at 1 μM is > 5.83 h.

Take `C=CC(=O)N1CCCC(C)(Nc2ncnc3[nH]ccc23)C1` (centres unmarked) [Example 71, 1-(3-((7H-Pyrrolo[2,3-d]pyrimidin-4-yl)amino)-3-methylpiperidin-1-yl)prop-2-en-1-one]: the half-life at 1 μM worked out at 3.82 h.

For the molecule `C=CC(=O)N1C[C@H](Nc2ncnc3[nH]ccc23)C[C@@H](N(C)C)C1` [Example 88, 1-[(3R,5R)-3-(Dimethylamino)-5-(7H-pyrrolo[2,3-d]pyrimidin-4-ylamino)piperidin-1-yl]prop-2-en-1-one], the half-life at 1 μM stood at 1.23 h.

`C=CC(=O)N1C[C@@H](Nc2ncnc3[nH]ccc23)CC[C@H]1CO` [Example 117, 1-[(2S,5S)-2-(Hydroxymethyl)-5-(7H-pyrrolo[2,3-d]pyrimidin-4-ylamino)piperidin-1-yl]prop-2-en-1-one]: the half-life at 1 μM is > 6 h.

`C=CC(=O)N1C[C@@H](C)C[C@H](Nc2ncnc3[nH]ccc23)C1` [Example 75, 1-((3S,5S)-3-((7H-Pyrrolo[2,3-d]pyrimidin-4-yl)amino)-5-methylpiperidin-1-yl)prop-2-en-1-one]: the half-life at 1 μM is > 6 h.

As to `C=CC(=O)N1CCC[C@@H](Nc2ncnc3[nH]cc(C)c23)C1` [Example 43, 1-{(3R)-3-[(5-methyl-7H-pyrrolo[2,3-d]pyrimidin-4-yl)amino]piperidin-1-yl}prop-2-en-1-one], the half-life at 1 μM was 4.57 h.

Turning to `C=CC(=O)N1CCC(Nc2cnc3[nH]cc(C(=O)NCCCC)c3n2)CC1` [Example 269, 2-[(1-acryloylpiperidin-4-yl)amino]-N-butyl-5H-pyrrolo[2,3-b]pyrazine-7-carboxamide], the half-life at 1 μM is 4.27 h.
